Measured values taken from US20250018047A1, “METHODS AND COMPOSITIONS FOR TARGETED PROTEIN DEGRADATION” (Ranok Therapeutics (Hangzhou) Co. Ltd., priority 2021, published 2025).
pIC50: −log10 of the molar value.

Key:
[1] = molecular target: T1, KRAS(G12D)/SOS1 (Homo sapiens, UniProt P01116, G12D); test: KRAS(G12D)/SOS1 homogeneous time-resolved fluorescence (HTRF) assay; format: binding; conditions: absence of GTP, 4° C. for 3 hr
T1 construct: purchased Cisbio 63ADK000CB16PEG
Method: The test compound was mixed and incubated with reaction components, incubated in a sealed plate at 4° C. for 3 hr and fluorescence was measured using a PerkinElmer Envision plate reader.

[2] = system: AsPC-1 human pancreatic adenocarcinoma; test: CellTiter-Glo cancer cell line proliferation assay, AsPC-1; format: cell-based; conditions: Homo sapiens, ASPC1, 24 hr
Method: (§1) Cell lines were cultured according to ATCC and recommendations.
(§2) CellTiter-Glo® Reagent Cancer Cell Line Proliferation Assays
(§3) Cells were plated in 96-well tissue culture plates at 4,000 cells/well and incubated at 37° C./5% CO2 for 24 hr in 100 μl of media. […] Cells were then treated with test compounds at various concentrations with a final concentration of 0.5% DMSO/well, and then incubated at 37° C./5% CO2 for 24 hr. 100 μl of CellTiter-Glo® Reagent (Promega Corporation, Madison, WI) was added to each well and processed according manufacturer's protocol. Results were analyzed and IC50-values were calculated in GraphPad 7 software.

[3] = system: A-427 human lung carcinoma; test: CellTiter-Glo cancer cell line proliferation assay, A-427; format: cell-based; conditions: Homo sapiens, A-427, 24 hr, read-out: A427 at 24 hrs, IC50
Method: as §1, §2, §3

T1 sequence (P01116 1-188 isoform P01116-2 G12D): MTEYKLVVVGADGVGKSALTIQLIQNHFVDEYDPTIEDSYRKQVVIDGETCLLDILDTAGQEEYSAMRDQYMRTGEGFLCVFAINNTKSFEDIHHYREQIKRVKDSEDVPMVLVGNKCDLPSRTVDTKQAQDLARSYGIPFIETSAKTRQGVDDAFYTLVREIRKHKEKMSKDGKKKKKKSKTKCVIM

Row | Compound | pIC50 [1] | pIC50 [2] | pIC50 [3]
1 | CN1C[C@H](N2CCN(CC3CCN(c4ccc5c(c4)C(=O)N(C4CCC(=O)NC4=O)C5=O)CC3)CC2)C[C@@H]1COc1nc(N2CC3CCC(C2)N3)c2cnc(-c3cc(O)cc4ccccc34)c(F)c2n1 (some centres unmarked) [Compound 34] | > 7.00 | < 6.00 | < 6.00
2 | CN1C[C@H](N2CCN(CC3CCN(c4cccc5c4C(=O)N(C4CCC(=O)NC4=O)C5=O)CC3)CC2)C[C@@H]1COc1nc(N2CC3CCC(C2)N3)c2cnc(-c3cc(O)cc4ccccc34)c(F)c2n1 (some centres unmarked) [Compound 35] | > 7.00 | < 6.00 | < 6.00
3 | CN1C[C@H](N2CCN(Cc3ccc4c(c3)C(=O)N(C3CCC(=O)NC3=O)C4=O)CC2)C[C@@H]1COc1nc(N2CC3CCC(C2)N3)c2cnc(-c3cc(O)cc4ccccc34)c(F)c2n1 (some centres unmarked) [Compound 36] | > 7.00 | < 6.00 | < 6.00
4 | CN1C[C@H](N2CCC(C(=O)Nc3ccc4c(c3)CN(C3CCC(=O)NC3=O)C4=O)CC2)C[C@@H]1COc1nc(N2CC3CCC(C2)N3)c2cnc(-c3cccc4cccc(Cl)c34)c(F)c2n1 (some centres unmarked) [Compound 49] | 6.00 to 7.00 | – | –
5 | O=C1CCC(N2Cc3cc(N4CCC(CN5CCN(CC6(COc7nc(N8CC9CCC(C8)N9)c8cnc(-c9cc(O)cc%10ccccc9%10)c(F)c8n7)CC6)CC5)CC4)ccc3C2=O)C(=O)N1 (centres unmarked) [Compound 52] | > 7.00 | – | 6.00 to 7.00
6 | CN1C[C@H](C2CCC(C(=O)NCCOc3ccc4c(c3)C(=O)N(C3CCC(=O)NC3=O)C4=O)CC2)C[C@@H]1COc1nc(N2CC3CCC(C2)N3)c2cnc(-c3cc(O)cc4ccccc34)c(F)c2n1 (some centres unmarked) [Compound 53] | > 7.00 | – | < 6.00
7 | CN1CC(N2CCC(C(=O)NCCOCCOc3ccc4c(c3)C(=O)N(C3CCC(=O)NC3=O)C4=O)CC2)C[C@@H]1COc1nc(N2CC3CCC(C2)N3)c2cnc(-c3cc(O)cc4ccccc34)c(F)c2n1 (some centres unmarked) [Compound 54] | > 7.00 | – | < 6.00
8 | C#Cc1cccc2cccc(-c3ncc4c(N5CC6CCC(C5)N6)nc(OC[C@H]5CC[C@@H](CN6CCN(CC7CCN(c8cc9c(cc8F)C(=O)N(C8CCC(=O)NC8=O)C9=O)CC7)CC6)N5C)nc4c3F)c12 (some centres unmarked) [Compound 55] | > 7.00 | – | < 6.00
9 | Cc1cccc2cccc(-c3ncc4c(N5CC6CCC(C5)N6)nc(OCC5(CN6CCN(CC7CCN(c8ccc9c(c8)C(=O)N(C8CCC(=O)NC8=O)C9=O)CC7)CC6)CC5)nc4c3F)c12 (centres unmarked) [Compound 58] | > 7.00 | – | –
10 | CN1[C@@H](COc2nc(N3CC4CCC(C3)N4)c3cnc(-c4cc(O)cc5ccccc45)c(F)c3n2)CC[C@H]1CN1CCN(CC2CCN(c3ccc4c(c3)C(=O)N(C3CCC(=O)NC3=O)C4=O)CC2)CC1 (some centres unmarked) [Compound 60] | > 7.00 | – | < 6.00
11 | C#Cc1cccc2cc(O)cc(-c3ncc4c(N5CC6CCC(C5)N6)nc(OCC5(CN6CCN(Cc7ccc8c(c7)CN(C7CCC(=O)NC7=O)C8=O)CC6)CC5)nc4c3F)c12 (centres unmarked) [Compound 61] | > 7.00 | – | 6.00 to 7.00
12 | C#Cc1cccc2cccc(-c3ncc4c(N5CC6CCC(C5)N6)nc(OC[C@H]5CC[C@@H](CN6CCN(CCC7CCN(c8ccc9c(c8)C(=O)N(C8CCC(=O)NC8=O)C9=O)CC7)CC6)N5C)nc4c3F)c12 (some centres unmarked) [Compound 62] | > 7.00 | – | 6.00 to 7.00
13 | Cc1cccc(-c2ncc3c(N4CC5CCC(C4)N5)nc(OCC4(CN5CCN(CC6CCN(c7ccc8c(c7)C(=O)N(C7CCC(=O)NC7=O)C8=O)CC6)CC5)CC4)nc3c2F)c1C (centres unmarked) [Compound 63] | > 7.00 | – | < 6.00
14 | C#Cc1c(F)ccc2cc(O)cc(-c3ncc4c(N5CC6CCC(C5)N6)nc(OCC5(CN6CCN(Cc7ccc8c(c7)C(=O)N(C7CCC(=O)NC7=O)C8=O)CC6)CC5)nc4c3F)c12 (centres unmarked) [Compound 64] | > 7.00 | – | < 6.00
15 | C#Cc1cccc2cc(O)cc(-c3ncc4c(N5CC6CCC(C5)N6)nc(OCC5(CN6CCN(Cc7ccc8c(c7)C(=O)N(C7CCC(=O)NC7=O)C8=O)CC6)CC5)nc4c3F)c12 (centres unmarked) [Compound 65] | > 7.00 | – | < 6.00
16 | C#Cc1cccc2cccc(-c3ncc4c(N5CC6CCC(C5)N6)nc(OCC5(CN(C)CC6CCN(c7ccc8c(c7)C(=O)N(C7CCC(=O)NC7=O)C8=O)CC6)CC5)nc4c3F)c12 (centres unmarked) [Compound 67] | > 7.00 | – | 6.00 to 7.00
17 | C#Cc1cccc2cc(O)cc(-c3ncc4c(N5CC6CCC(C5)N6)nc(OC[C@H]5CC[C@@H](CN6CCN(CC7CCN(c8ccc9c(c8)C(=O)N(C8CCC(=O)NC8=O)C9=O)CC7)CC6)N5C)nc4c3F)c12 (some centres unmarked) [Compound 68] | > 7.00 | – | < 6.00
18 | C#Cc1cccc2cc(O)cc(-c3ncc4c(N5CC6CCC(C5)N6)nc(OC[C@H]5CC[C@@H](CN6CCN(CC7CCN(c8ccc9c(c8)CN(C8CCC(=O)NC8=O)C9=O)CC7)CC6)N5C)nc4c3F)c12 (some centres unmarked) [Compound 69] | > 7.00 | – | < 6.00

Row | Compound | pIC50 [1] | pIC50 [2] | pIC50 [3]
19 | COc1cc(-c2ncc3c(N4CC5CCC(C4)N5)nc(OCC4(CN5CCN(CC6CCN(c7ccc8c(c7)CN(C7CCC(=O)NC7=O)C8=O)CC6)CC5)CC4)nc3c2F)c2ccccc2c1 (centres unmarked) [Compound 70] | < 6.00 | – | < 6.00
20 | C#Cc1cccc2cccc(-c3ncc4c(N5CC6CCC(C5)N6)nc(OC[C@H]5C[C@@H](N6CCN(CCC7CCN(c8ccc9c(c8)C(=O)N(C8CCC(=O)NC8=O)C9=O)CC7)CC6)CN5C)nc4c3F)c12 (some centres unmarked) [Compound 74] | > 7.00 | – | < 6.00
21 | CN(CC1CCN(c2ccc3c(c2)C(=O)N(C2CCC(=O)NC2=O)C3=O)CC1)CC1(COc2nc(N3CC4CCC(C3)N4)c3cnc(-c4cc(O)cc5ccccc45)c(F)c3n2)CC1 (centres unmarked) [Compound 75] | > 7.00 | – | < 6.00
22 | O=C1CCC(N2C(=O)c3ccc(N4CCN(C(=O)C5CCN(CC6(COc7nc(N8CC9CCC(C8)N9)c8cnc(-c9cc(O)cc%10ccccc9%10)c(F)c8n7)CC6)CC5)CC4)cc3C2=O)C(=O)N1 (centres unmarked) [Compound 76] | > 7.00 | – | < 6.00
23 | C#Cc1cccc2cc(O)cc(-c3ncc4c(N5CC6CCC(C5)N6)nc(OCC5(CN6CCN(CC7CCN(CC(=O)N[C@@H](C(=O)N8C[C@@H](O)C[C@@H]8C(=O)NCc8ccc(-c9scnc9C)cc8)C(C)(C)C)CC7)CC6)CC5)nc4c3F)c12 [Compound 82] | – | < 6.00 | < 6.00
24 | C#Cc1cccc2cc(O)cc(-c3ncc4c(N5CC6CCC(C5)N6)nc(OCC5(CN6CCN(C(=O)N7CCN(c8ccc9c(c8)CN(C8CCC(=O)NC8=O)C9=O)CC7)CC6)CC5)nc4c3F)c12 (centres unmarked) [Compound 88] | – | 6.00 to 7.00 | < 6.00
25 | C#Cc1c(F)ccc2cc(O)cc(-c3ncc4c(N5CC6CCC(C5)N6)nc(OCC5(CN(C)CC6CCN(c7ccc8c(c7)C(=O)N(C7CCC(=O)NC7=O)C8)CC6)CC5)nc4c3F)c12 (centres unmarked) [Compound 89] | – | < 6.00 | < 6.00
26 | C#Cc1cccc2cc(O)cc(-c3ncc4c(N5CC6CCC(C5)N6)nc(OCC5(CN6CCN(CC7CCN(c8cc9c(cc8F)C(=O)N(C8CCC(=O)NC8=O)C9)CC7)CC6)CC5)nc4c3F)c12 (centres unmarked) [Compound 90] | – | > 7.00 | > 7.00
27 | C#Cc1cccc2cc(O)cc(-c3nc(OC)c4c(N5CC6CCC(C5)N6C)nc(OCC5(CN6CCN(CC7CCN(c8ccc9c(c8)CN(C8CCC(=O)NC8=O)C9=O)CC7)CC6)CC5)nc4c3F)c12 (centres unmarked) [Compound 105] | > 7.00 | < 6.00 | –
28 | C#Cc1c(F)ccc2cc(O)cc(-c3nc(OC)c4c(N5CCN(C)[C@@H](CC#N)C5)nc(OCC5(CN6CCN(CC7CCN(c8ccc9c(c8)CN(C8CCC(=O)NC8=O)C9=O)CC7)CC6)CC5)nc4c3F)c12 (some centres unmarked) [Compound 106] | > 7.00 | < 6.00 | –
29 | C#Cc1c(F)ccc2cc(O)cc(-c3ncc4c(N5CC6CCC(C5)N6C(=O)C(F)(F)F)nc(OCC5(CN6CCN(CC7CCN(c8ccc9c(c8)CN(C8CCC(=O)NC8=O)C9=O)CC7)CC6)CC5)nc4c3F)c12 (centres unmarked) [Compound 108] | > 7.00 | – | –
30 | C#Cc1c(F)ccc2cc(O)cc(-c3ncc4c(N5CCN(C(=O)C=C)[C@@H](CC#N)C5)nc(OCC5(CN6CCN(CC7CCN(c8ccc9c(c8)CN(C8CCC(=O)NC8=O)C9=O)CC7)CC6)CC5)nc4c3F)c12 (some centres unmarked) [Compound 109] | > 7.00 | – | –
31 | C#Cc1c(F)ccc2cc(O)cc(-c3ncc4c(N5CC6CCC(C5)N6C(=O)CC#N)nc(OCC5(CN6CCN(CC7CCN(c8ccc9c(c8)CN(C8CCC(=O)NC8=O)C9=O)CC7)CC6)CC5)nc4c3F)c12 (centres unmarked) [Compound 110] | > 7.00 | – | –
32 | C#Cc1c(F)ccc2cc(O)cc(-c3ncc4c(N5CC6CCC(C5)N6)nc(OCC5(CN6CCC(CN7CCC(c8ccc(NC9CCC(=O)NC9=O)cc8)CC7)CC6)CC5)nc4c3F)c12 (centres unmarked) [Compound 113] | > 7.00 | – | –
33 | C#Cc1c(F)ccc2cc(O)cc(-c3ncc4c(N5CC6CCC(C5)N6)nc(OCC5(CN6CCC7(CC6)CCN(c6ccc8c(c6)CN(C6CCC(=O)NC6=O)C8=O)CC7)CC5)nc4c3F)c12 (centres unmarked) [Compound 114] | > 7.00 | – | –
34 | C#Cc1c(F)ccc2cc(O)cc(-c3nc(OC)c4c(N5CC6CCC(C5)N6)nc(OCC5(CN6CCN(C7CCN(c8ccc9c(c8)C(=O)N(C8CCC(=O)NC8=O)C9=O)CC7)CC6)CC5)nc4c3F)c12 (centres unmarked) [Compound 115] | > 7.00 | – | –
35 | C#Cc1c(F)ccc2cc(O)cc(-c3ncc4c(N5CC6CCC(C5)N6)nc(OCC5(CN6CCC7(CC6)CN(c6ccc8c(c6)CN(C6CCC(=O)NC6=O)C8=O)C7)CC5)nc4c3F)c12 (centres unmarked) [Compound 116] | > 7.00 | – | –
36 | C#Cc1c(F)ccc2cc(O)cc(-c3ncc4c(N5CC6CCC(C5)N6)nc(OCC5(CN6CC7(C6)CN(c6ccc8c(c6)CN(C6CCC(=O)NC6=O)C8=O)C7)CC5)nc4c3F)c12 (centres unmarked) [Compound 117] | > 7.00 | – | –
